How the values were obtained:
[1] = tested on: IL-8 production by HIPEC cells; test: IL-8 production by HIPECs, ELISA; format: cell-based, human; details: for IL-8 production: 5-ASA 1-10 μg/ml in culture medium
Experimental: Human gastrointestinal epithelial stem cell-like progenitor cells were isolated from a normal segment of the large intestine and a segment of the large intestine in a diseased state (such as a segment having ulcerative colitis). Epithelial monolayers were grown from these progenitor crypt cells on the appropriate BSME as described above. The effects of 5-ASA on spontaneous, LPS, or IFN-γ stimulated IL-8 production were assessed on HIPEC cells cultured in the presence or absence of either LPS or IFN-γ and 5-ASA (1-10 μg/ml). The level of IL-8 production was measured by ELISA.

[2] = tested on: HGISC-derived primary epithelial cell line A2J1; test: Cellular toxicity of SN-38, MTT viability assay, A2J1; format: cell-based, human; details: A2J1 cells; increasing amounts of SN-38
Experimental: (§1) Briefly, HGISC-derived primary epithelial cell lines (A2J1 and SOJ2) and the malignant colonic adenocarcinoma cell line (HT29) were cultured, as described above in Examples 1A and 1B in medium containing different cytotoxic levels of the irinotecan metabolite 7-ethyl-10-hydroxy-20(S)-camptothecin (SN-38). […] Each cell culture was assessed for viability utilizing the MIT assay.
(§2) Yellow MTT (3-(4,5-Dimethylthiazol-2-yl)-2,5-diphenyltetrazolium bromide, a tetrazole) is reduced to purple formazan in living cells. A solubilization solution (usually either dimethyl sulfoxide, an acidified ethanol solution, or a solution of the detergent sodium dodecyl sulfate in diluted hydrochloric acid) is added to dissolve the insoluble purple formazan product into a colored solution. The absorbance of this colored solution may be quantified by measuring at a certain wavelength (usually between 500 and 600 nm) using a spectrophotometer. The absorption maximum is dependent on the solvent employed. The MTT assay may be used to determine cytotoxicity of materials, since those materials that result in cell toxicity, and therefore metabolic dysfunction, yield decreased performance in the assay.

[3] = tested on: HGISC-derived primary epithelial cell line SOJ2; test: Cellular toxicity of SN-38, MTT viability assay, SOJ2; format: cell-based, human; details: SOJ2 cells; increasing amounts of SN-38
Experimental: as §1, §2

[4] = tested on: malignant colonic adenocarcinoma cell line (HT29); test: Cellular toxicity of SN-38, MTT viability assay, HT29; format: cell-based, human; details: HT29 cells; increasing amounts of SN-38
Experimental: as §1, §2

[5] = tested on: HIPEC monolayer derived from small intestinal segment (A2J1)
[6] = cited from earlier work

Question: For `Nc1ccc(O)c(C(=O)O)c1` [5-ASA, 5-aminosalicyclic acid], which IL-8 production ([1]; IBS HIPECs) is on record?
Answer: The IL-8 production was “suppressed”.

Question: And the IL-8 production ([1]; normal HIPECs)?
Answer: Its IL-8 production is “suppressed”.

Question: What does the source list for `CCc1c2c(nc3ccc(O)cc13)-c1cc3c(c(=O)n1C2)COC(=O)[C@]3(O)CC` [SN-38, 7-ethyl-10-hydroxy-20(S)-camptothecin]?
Answer: percent viability (MTT) [2]: 0%; percent viability (MTT) [3]: above 50%; percent viability (MTT) [4]: unaffected

Question: For `CC(C)NCC(O)COc1cccc2ccccc12` (stereo not drawn) [propranolol], which “permeability through small intestine (A2J1) compared with large intestine (5A)” value [5] is on record?
Answer: The value was “greater than through large intestine (5A)”.

Question: What about the absorption ([6]; administered in vivo) of the same compound?
Answer: Its absorption is “absorbed rapidly and completely”.

Question: What about the bioavailability ([6]; due to extensive first-pass metabolism) of the same compound?
Answer: The bioavailability was “variable bioavailability”.

Question: For “IFN-γ: cytokine produced predominantly by natural killer T cells as part of the innate immune response”, which “effect of stimulation on spontaneous IL-8 production” value ([1]; HIPECs from normal controls and from patients with IBS) is on record?
Answer: Its value is “moderately enhanced”.

Reference: US20160084824A1, “DRUG DISCOVERY METHODS INVOLVING A PRECLNICAL, IN VITRO ISOLATED GASTROINTESTINAL EPITHELIAL STEM CELL-LIKE PROGENITOR CELL SYSTEM” (AlfaGene Bioscience, Inc., priority 2008, published 2016)
